We go through five compounds from patent US7153676B1, “Transacylases of the paclitaxel biosynthetic pathway” (priority 1999, dated 2006).

The structures appear in SMILES notation. Several values for one entry are separate records, joined by “and”; a condition that tells them apart may be missing. Equal values may be shown once.

Assay [1] has as its target T1, 10-deacetylbaccatin III-10-O-acetyl transferase (TAX6) (Taxus cuspidata, UniProt Q9M6E2).
T1 construct: to amplify the putative full-length acetyl transferase gene and incorporate NdeI and XbaI restriction sites; made in house; host or cells: E. coli JM109 (pCWori+)
T1 sequence (Q9M6E2 1-440): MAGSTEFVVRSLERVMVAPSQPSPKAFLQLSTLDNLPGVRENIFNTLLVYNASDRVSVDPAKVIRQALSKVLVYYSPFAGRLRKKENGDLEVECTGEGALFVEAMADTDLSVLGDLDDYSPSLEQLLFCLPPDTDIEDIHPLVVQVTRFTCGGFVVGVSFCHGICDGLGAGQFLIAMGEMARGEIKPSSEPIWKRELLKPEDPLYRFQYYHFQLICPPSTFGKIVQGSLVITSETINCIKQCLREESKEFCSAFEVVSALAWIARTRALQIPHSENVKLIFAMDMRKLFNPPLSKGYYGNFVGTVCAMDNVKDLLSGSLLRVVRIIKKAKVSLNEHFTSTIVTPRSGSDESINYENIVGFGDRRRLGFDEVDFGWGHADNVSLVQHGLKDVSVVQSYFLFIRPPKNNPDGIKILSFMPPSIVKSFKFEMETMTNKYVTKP
The assay is classed as biochemical. As to conditions: for conversion/acetylation of substrate by TAX6: 10-hydroxyl of 10-deacetylbaccatin III, 5α-hydroxyl of taxadienol. As to the method:
For the enzyme preparation, E. coli cells transformed with the pCWori+ vector harboring the putative DBAT gene were grown overnight at 37° C. in 5 mL Luria-Bertani medium supplemented with ampicillin, and 1 mL of this inoculum was added to and grown in 100 mL Terrific Broth culture medium (6 g bacto-tryptone, Difco Laboratories, Spark, Md., 12 g yeast extract, EM Science, Cherryhill, N.J., and 2 mL gycerol in 500 mL water) supplemented with 1 mM IPTG, 1 mM thiamine HCl and 50 μg ampicillin/mL. After 24 hours, the bacteria were harvested by centrifugation, resuspended in 20 mL of assay buffer (25 mM Mopso, pH 7.4) and then disrupted by sonication at 0–4° C. The resulting homogenate was centrifuged at 15,000 g to remove debris, and a 1 mL aliquot of the supernatant was incubated with 10-deacetylbaccatin III (400 μM) and [2-^3H]acetyl coenzyme A (0.45μCi, 400 μM) for 1 hour at 31° C. The reaction mixture was extracted with ether and the solvent concentrated in vacuo. The crude product (pooled from five such assays) was purified by silica gel thin-layer chromatography (TLC; 70:30 ethyl acetate:hexane).
The activity of TAX6 (SEQ ID NO: 45) was assayed under standard conditions described in Walker et al., Arch. Biochem. Biophys.

Assay [2] concerns acetyl CoA:taxadien-5α-ol O-acetyl transacylase. As to conditions: cited from earlier work; for acetylation by the enzyme (substrate selectivity): more advanced paclitaxel precursors; for Km: cosubstrate of the taxadienol acetyl transacylase.

One may read the Km as the substrate concentration at which the rate is half of its maximum. `CC(=O)O[C@@]12CO[C@@H]1C[C@H](O)[C@@]1(C)C(=O)[C@H](O)C3=C(C)[C@@H](O)C[C@@](O)([C@@H](OC(=O)c4ccccc4)[C@H]21)C3(C)C` [10-deacetylbaccatin III]: in assay [1], the Km was 10 µM and the “conversion/acetylation of substrate by TAX6” value was “catalyze the conversion”. The “acetylation of the 1β-, 7β-, or 13α-hydroxyl groups by TAX6” value in assay [1] (regioselectivity) is “does not acetylate”. Besides, the “acetylation by the enzyme (substrate selectivity)” value in assay [2] is “does not acetylate”.
For `CC(C)(COP(=O)(O)OP(=O)(O)OC[C@H]1O[C@@H](n2cnc3c(N)ncnc32)[C@H](O)[C@@H]1OP(=O)(O)O)[C@@H](O)C(=O)NCCC(=O)NCCS` [Co-enzyme A], the “inhibition of the enzyme” value in assay [2] is listed as “only weakly inhibited”.
`CC(=O)SCCNC(=O)CCNC(=O)[C@H](O)C(C)(C)COP(=O)(O)OP(=O)(O)OC[C@H]1O[C@@H](n2cnc3c(N)ncnc32)[C@H](O)[C@@H]1OP(=O)(O)O` [acetyl CoA]: the Km in assay [2] is 5.5 µM and 6 µM.
Turning to `CC(=O)O[C@H]1C(=O)[C@@]2(C)[C@H]([C@H](OC(=O)c3ccccc3)[C@]3(O)C[C@H](O)C(C)=C1C3(C)C)[C@]1(OC(C)=O)CO[C@@H]1C[C@@H]2O` [baccatin III], the “acetylation by the enzyme (substrate selectivity)” value in assay [2] is “does not acetylate”.
On to `C=C1[C@H]2C[C@@H]3CCC(C)=C(CC[C@]2(C)CC[C@@H]1O)C3(C)C` [taxadienol, taxa-4(20),11(12)-dien-5α-ol], for which the “conversion/acetylation of substrate by TAX6” value in assay [1] is on record as “nor does it acetylate”. Besides, the Km in assay [2] is 4.2 µM and 4 µM.
